In patent publication US11413278B2, “Compounds and methods for promoting stress resistance” (priority 2015, dated 2022):
Where two headings read alike, the source gives them in different places.

Key:
[1] = system: PC12 cells expressing poly(Q)103-Htt-EGFP; assay: Poly(Q) toxicity & viability analysis (cellular model of Huntington's disease); type: cell-based, rat; conditions: for M = Huntington's poly-Q toxicity attenuation: score; for K = Huntington's poly-Q toxicity attenuation: summary score
Method in brief: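 Readout is CellTiter-Glo ATP content measured after 48 hrs. Cells are a PC12 line stably expressing inducible poly(Q)103-Htt-EGFP, where induction produces toxic aggregates.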

[2] = system: HTB-178 lung tumor cells (EGFR+, PIK3CA+, RB1−, TP53−); assay: Killing effects on HTB-178 tumor cells; type: cell-based, human; conditions: Assay 1(y), at 10 uM
FOXO3 = assay: qPCR analysis of FOXO3-regulated genes; type: cell-based, human; conditions: for fold induction at 10 µM: Homo sapiens; for K = Sestrin induction: score
Method in brief: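 FOXO3 target-gene expression quantified by qPCR normalised to B2M, PPIA and GAPDH, in WI-38 cells after 24 h exposure to 10 μM compound. Some runs used cells first transfected 36 h with 10 nM FOXO3 or NRF2 siRNA and replated ~24 h before dosing.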

WI-38 cells = conditions: no H2O2 stress, 10 uM; negative control 0.41% ± 0.23%
Protocol: WI-38 cells were seeded on 384-well plates for 24 hrs and then incubated with small molecules for 24 hrs. […] Images were collected on an INCell Analyzer 2000 (GE) and analyzed with the Developer software.

human PARP1 = target: T1, human PARP1 (Homo sapiens, UniProt P09874); assay: PARP inhibitor assay (HT Fluorescent Homogeneous PARP Inhibition Assay Kit); type: biochemical; conditions: for Inhibition of PARP1: 10 μM, in vitro; for L = PARP inhibition: score
T1 construct: purchased Trevigen
T1 sequence (P09874 whole entry): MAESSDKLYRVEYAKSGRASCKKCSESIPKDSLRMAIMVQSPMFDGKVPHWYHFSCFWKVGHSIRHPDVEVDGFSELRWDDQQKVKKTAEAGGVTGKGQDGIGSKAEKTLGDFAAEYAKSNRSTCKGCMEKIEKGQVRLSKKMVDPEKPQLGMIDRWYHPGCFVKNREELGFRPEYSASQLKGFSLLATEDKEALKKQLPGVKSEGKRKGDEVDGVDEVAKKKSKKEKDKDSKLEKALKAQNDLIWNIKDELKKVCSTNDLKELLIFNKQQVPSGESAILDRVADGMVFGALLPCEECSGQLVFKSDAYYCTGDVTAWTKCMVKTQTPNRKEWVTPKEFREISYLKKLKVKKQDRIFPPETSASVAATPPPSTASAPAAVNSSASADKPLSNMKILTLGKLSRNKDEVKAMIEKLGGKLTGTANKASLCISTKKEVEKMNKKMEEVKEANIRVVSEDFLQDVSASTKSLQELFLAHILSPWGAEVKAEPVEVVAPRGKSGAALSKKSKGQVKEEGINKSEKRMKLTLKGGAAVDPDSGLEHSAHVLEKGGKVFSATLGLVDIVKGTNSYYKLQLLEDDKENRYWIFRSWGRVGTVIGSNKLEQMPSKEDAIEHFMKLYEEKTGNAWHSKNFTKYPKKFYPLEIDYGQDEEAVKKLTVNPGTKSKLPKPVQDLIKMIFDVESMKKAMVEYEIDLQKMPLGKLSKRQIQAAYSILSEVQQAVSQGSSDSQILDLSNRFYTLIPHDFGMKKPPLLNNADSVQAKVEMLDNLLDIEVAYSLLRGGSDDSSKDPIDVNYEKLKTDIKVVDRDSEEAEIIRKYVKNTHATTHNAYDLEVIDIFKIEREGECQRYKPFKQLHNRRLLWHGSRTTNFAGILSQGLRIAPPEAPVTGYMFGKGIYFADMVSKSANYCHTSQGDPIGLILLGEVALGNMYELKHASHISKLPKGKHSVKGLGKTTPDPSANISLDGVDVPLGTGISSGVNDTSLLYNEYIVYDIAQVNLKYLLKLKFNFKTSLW
Method in brief: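 Compounds (10 μM final) incubated 30 min, room temperature, dark, with human PARP1, nicotinamide adenine dinucleotide and activated DNA. Fluorescent signal generated by 1 hr cycling with diaphorase and resazurin, then reaction stopped.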

[3] = 24 h, Assay 10(m), at 10 uM, qPCR, read-out: Induction of FOXO3-regulated genes: GADD45A normalized fold-change
[4] = 10 μM, 24 hrs, WI-38 cells, qPCR, normalized to B2M, n = 4, read-out: GADD45A expression, normalized fold change (FOXO3-regulated gene)
[5] = WI-38 cells, 10 μM, 24 hrs, n=4, qPCR normalized by B2M, read-out: DDB1 Normalized fold change
[6] = WI-38 cells, 10 μM, 24 hrs, n=4, qPCR normalized by B2M, read-out: GADD45A Normalized fold change
[7] = WI-38 cells, 10 μM, 24 hrs, n=4, qPCR normalized by B2M, read-out: SESN1 Normalized fold change
[8] = fold change, qPCR, WI-38 cells, 10 μM, 24 hrs, read-out: Summary of effects on FOXO3-regulated genes: GADD45A
[9] = qPCR, WI-38 cells, 10 μM, n=4, 24 hrs, normalized by B2M, read-out: CAT Normalized fold change
[10] = qPCR, WI-38 cells, 10 μM, n=4, 24 hrs, normalized by B2M, read-out: SOD2 Normalized fold change
[11] = qPCR, WI-38 cells, 10 μM, n=4, 24 hrs, normalized by B2M, read-out: TXNIP Normalized fold change

With `Cc1cc(N)n(-c2ccccc2C(=O)O)n1` [Gr-6A] the “M = Huntington's poly-Q toxicity attenuation” value [1] was 0, the “K = Huntington's poly-Q toxicity attenuation” value [1] was 0 and the “Potential killing effects on HTB-178 tumor cells, 1st” value (from here on “Potential killing effects … 1st”) [2] was “YES;”. For the same molecule, the “E = Potential FOXO3 Activation” value (FOXO3; 2-point score) was 0, the fold induction at 10 µM (FOXO3; [3]) was 0.79 and the fold induction at 10 µM (FOXO3; [4]) was 0.79. It also gave a fold induction at 10 µM (FOXO3; [5]) of 1.05, a fold induction at 10 µM (FOXO3; [6]) of 0.787 and a fold induction at 10 µM (FOXO3; [7]) of 1.18. The fold induction at 10 µM (FOXO3; [8]) was 0.79, the fold induction at 10 µM (FOXO3; [9]) was 1.2 and the fold induction at 10 µM (FOXO3; [10]) was 0.868. For the same molecule, the fold induction at 10 µM (FOXO3; [11]) was 1.14, the “K = Sestrin induction” value (FOXO3) was 0 and the “E = Potential FOXO3 Activation” value (FOXO3; summary score) was 0. The “Percentage of propidium iodide-positive dead cells (no H2O2 stress treatment), at 10 uM” value (WI-38 cells) was 0.41% ± 0.17%,, the “Inhibition of PARP1” value (human PARP1) was “inhibitors of PARP1” and the “L = PARP inhibition” value (human PARP1) was 1.

For `[O-][n+]1onc2c3nsnc3c(Br)cc21` [O17], the “M = Huntington's poly-Q toxicity attenuation” value [1] was 0, the “K = Huntington's poly-Q toxicity attenuation” value [1] was 0 and the “Potential killing effects … 1st” value [2] was “YES;”. For the same molecule, the “Potential killing effects on HTB-178 tumor cells, 2nd” value ([2]; 2nd) was “YES”, the “E = Potential FOXO3 Activation” value (FOXO3; 2-point score) was 0 and the fold induction at 10 µM (FOXO3; [3]) was 0.85. It also gave a fold induction at 10 µM (FOXO3; [4]) of 0.85, a fold induction at 10 µM (FOXO3; [5]) of 1.04 and a fold induction at 10 µM (FOXO3; [6]) of 0.846. The fold induction at 10 µM (FOXO3; [7]) was 1.11, the fold induction at 10 µM (FOXO3; [8]) was 0.85 and the fold induction at 10 µM (FOXO3; [9]) was 1.11. The fold induction at 10 µM (FOXO3; [10]) was 0.997, the fold induction at 10 µM (FOXO3; [11]) was 0.801 and the “K = Sestrin induction” value (FOXO3) was 0. For the same molecule, the “E = Potential FOXO3 Activation” value (FOXO3; summary score) was 0, the “Percentage of propidium iodide-positive dead cells (no H2O2 stress treatment), at 10 uM” value (WI-38 cells) was 0.56% ± 0.25%, and the “L = PARP inhibition” value (human PARP1) was 0.

`CCCC(=O)Nc1ccc(-c2cn3cccc(C)c3n2)cc1` [O12] was tested, and the “M = Huntington's poly-Q toxicity attenuation” value [1] was 0, the “K = Huntington's poly-Q toxicity attenuation” value [1] was 0 and the “Potential killing effects … 1st” value [2] was “YES;”. The “Induction of at least two of five FOXO3-regulated genes (SOD2, GADD45A, CAT, DDB1, TXNIP)” value (FOXO3; 10 μM, 24 hrs, WI-38) was “significant induction”, the “SOD2 expression, normalized fold change (FOXO3-regulated gene)” value (FOXO3; 10 μM, 24 hrs, WI-38 cells, qPCR, normalized to B2M, n = 4) was “SOD2 1.52, fold” and the “E = Potential FOXO3 Activation” value (FOXO3; 2-point score) was 2. For the same molecule, the fold induction at 10 µM (FOXO3; 24 h, Assay 10(m), at 10 uM, qPCR, read-out: Induction of FOXO3-regulated genes: CAT normalized fold-change) was 0.82, the fold induction at 10 µM (FOXO3; 24 h, Assay 10(m), at 10 uM, qPCR, read-out: Induction of FOXO3-regulated genes: DDB1 normalized fold-change) was 0.86 and the fold induction at 10 µM (FOXO3; [3]) was 1.44. For the same molecule, the fold induction at 10 µM (FOXO3; 24 h, Assay 10(m), at 10 uM, qPCR, read-out: Induction of FOXO3-regulated genes: SOD2 normalized fold-change) was 1.35, the fold induction at 10 µM (FOXO3; 10 μM, 24 hrs, WI-38 cells, qPCR, normalized to B2M, n = 4, read-out: CAT expression, normalized fold change (FOXO3-regulated gene)) was 0.8 and the fold induction at 10 µM (FOXO3; [4]) was 1.69. For the same molecule, the fold induction at 10 µM (FOXO3; [5]) was 1.02, the fold induction at 10 µM (FOXO3; [6]) was 1.69 and the fold induction at 10 µM (FOXO3; [7]) was 1.05. For the same molecule, the fold induction at 10 µM (FOXO3; fold change, qPCR, WI-38 cells, 10 μM, 24 hrs, read-out: Summary of effects on FOXO3-regulated genes: CAT) was 0.8, the fold induction at 10 µM (FOXO3; [8]) was 1.69 and the fold induction at 10 µM (FOXO3; [9]) was 0.802. The fold induction at 10 µM (FOXO3; [10]) was 1.52, the fold induction at 10 µM (FOXO3; [11]) was 0.909 and the “Summary of effects on FOXO3-regulated genes: SOD2” value (FOXO3; fold change, qPCR, WI-38 cells, 10 μM, 24 hrs) was “SOD2 1.52,”. The “K = Sestrin induction” value (FOXO3) was 0, the “E = Potential FOXO3 Activation” value (FOXO3; summary score) was 0 and the “Percentage of propidium iodide-positive dead cells (no H2O2 stress treatment), at 10 uM” value (WI-38 cells) was 0.45% ± 0.05%,. For the same molecule, the “Inhibition of PARP1” value (human PARP1) was “inhibitors of PARP1” and the “L = PARP inhibition” value (human PARP1) was 0.
